Assay results published in the NIST ThermoML archive (doi:10.1016/j.tca.2012.01.013).

Tests used:
[1] = refractive index (Na D-line) (dimensionless); xn = mol fraction of the nth substance listed; details: 101 kPa, Liquid, Standard Abbe refractometry
[2] = xn = mol fraction of the nth substance listed; details: 101 kPa, Liquid, Vibrating tube method

COC(=O)CCCCC(=O)OC [dimethyl 1,6-hexanedioate] + CCCCO
Details | mass density, [2] [kg/m3] | refractive index, [1]
288.15 K, x1 = 0.0999 | 854.546 | 1.40584
288.15 K, x1 = 0.2004 | 890.617 | 1.40986
288.15 K, x1 = 0.2999 | 921.957 | 1.41343
288.15 K, x1 = 0.4003 | 949.859 | 1.41668
288.15 K, x1 = 0.4999 | 974.548 | 1.41965
288.15 K, x1 = 0.6007 | 996.907 | 1.42221
288.15 K, x1 = 0.6996 | 1016.65 | 1.42454
288.15 K, x1 = 0.7994 | 1034.84 | 1.4267
288.15 K, x1 = 0.8991 | 1051.42 | 1.42867
288.15 K, x1 = 1 | 1066.79 | 1.4305
293.15 K, x1 = 0.0999 | 850.5 | 1.40378
293.15 K, x1 = 0.2004 | 886.373 | 1.40776
293.15 K, x1 = 0.2999 | 917.562 | 1.41135
293.15 K, x1 = 0.4003 | 945.34 | 1.41458
293.15 K, x1 = 0.4999 | 969.9 | 1.41754
293.15 K, x1 = 0.6007 | 992.211 | 1.4201
293.15 K, x1 = 0.6996 | 1011.89 | 1.42243
293.15 K, x1 = 0.7994 | 1030.03 | 1.4246
293.15 K, x1 = 0.8991 | 1046.58 | 1.42658
293.15 K, x1 = 1 | 1061.93 | 1.42842
298.15 K, x1 = 0.0999 | 846.433 | 1.40169
298.15 K, x1 = 0.2004 | 882.112 | 1.40568
298.15 K, x1 = 0.2999 | 913.148 | 1.40925
298.15 K, x1 = 0.4003 | 940.805 | 1.41247
298.15 K, x1 = 0.4999 | 965.3 | 1.41541
298.15 K, x1 = 0.6007 | 987.507 | 1.418
298.15 K, x1 = 0.6996 | 1007.13 | 1.42033
298.15 K, x1 = 0.7994 | 1025.22 | 1.4225
298.15 K, x1 = 0.8991 | 1041.74 | 1.42451
298.15 K, x1 = 1 | 1057.06 | 1.42636
303.15 K, x1 = 0.0999 | 842.341 | 1.39959
303.15 K, x1 = 0.2004 | 877.825 | 1.40356
303.15 K, x1 = 0.2999 | 908.714 | 1.40713
303.15 K, x1 = 0.4003 | 936.253 | 1.41033
303.15 K, x1 = 0.4999 | 960.66 | 1.41329
303.15 K, x1 = 0.6007 | 982.791 | 1.41588
303.15 K, x1 = 0.6996 | 1002.36 | 1.41823
303.15 K, x1 = 0.7994 | 1020.41 | 1.42042
303.15 K, x1 = 0.8991 | 1036.89 | 1.42242
303.15 K, x1 = 1 | 1052.18 | 1.42429
308.15 K, x1 = 0.0999 | 838.219 | 1.39746
308.15 K, x1 = 0.2004 | 873.513 | 1.40144
308.15 K, x1 = 0.2999 | 904.259 | 1.40498
308.15 K, x1 = 0.4003 | 931.684 | 1.4082
308.15 K, x1 = 0.4999 | 955.998 | 1.41109
308.15 K, x1 = 0.6007 | 978.06 | 1.41376
308.15 K, x1 = 0.6996 | 997.573 | 1.41612
308.15 K, x1 = 0.7994 | 1015.59 | 1.41832
308.15 K, x1 = 0.8991 | 1032.04 | 1.42035
308.15 K, x1 = 1 | 1047.31 | 1.42222
313.15 K, x1 = 0.0999 | 834.066 | 1.39533
313.15 K, x1 = 0.2004 | 869.172 | 1.3993
313.15 K, x1 = 0.2999 | 899.775 | 1.40285
313.15 K, x1 = 0.4003 | 927.091 | 1.40603
313.15 K, x1 = 0.4999 | 951.32 | 1.40901
313.15 K, x1 = 0.6007 | 973.316 | 1.41163
313.15 K, x1 = 0.6996 | 992.781 | 1.41402
313.15 K, x1 = 0.7994 | 1010.76 | 1.41623
313.15 K, x1 = 0.8991 | 1027.18 | 1.41828
313.15 K, x1 = 1 | 1042.43 | 1.42017
318.15 K, x1 = 0.0999 | 829.874 | 1.39323
318.15 K, x1 = 0.2004 | 864.799 | 1.39716
318.15 K, x1 = 0.2999 | 895.264 | 1.40072
318.15 K, x1 = 0.4003 | 922.473 | 1.40393
318.15 K, x1 = 0.4999 | 946.622 | 1.40688
318.15 K, x1 = 0.6007 | 968.555 | 1.40952
318.15 K, x1 = 0.6996 | 987.974 | 1.4119
318.15 K, x1 = 0.7994 | 1005.91 | 1.41415
318.15 K, x1 = 0.8991 | 1022.31 | 1.41622
318.15 K, x1 = 1 | 1037.54 | 1.41819
323.15 K, x1 = 0.0999 | 825.64 | 1.39109
323.15 K, x1 = 0.2004 | 860.391 | 1.39505
323.15 K, x1 = 0.2999 | 890.725 | 1.39859
323.15 K, x1 = 0.4003 | 917.832 | 1.40177
323.15 K, x1 = 0.4999 | 941.902 | 1.40473
323.15 K, x1 = 0.6007 | 963.778 | 1.4074
323.15 K, x1 = 0.6996 | 983.155 | 1.40981
323.15 K, x1 = 0.7994 | 1001.06 | 1.41207
323.15 K, x1 = 0.8991 | 1017.44 | 1.41416
323.15 K, x1 = 1 | 1032.64 | 1.41614

COC(=O)c1ccccc1C(=O)OC [dimethyl 1,2-benzenedicarboxylate] + CCC(C)O
Details | mass density, [2] [kg/m3] | refractive index, [1]
288.15 K, x1 = 0.1002 | 874.348 | 1.41917
288.15 K, x1 = 0.2014 | 929.895 | 1.43651
288.15 K, x1 = 0.3002 | 977.298 | 1.45122
288.15 K, x1 = 0.4001 | 1019.6 | 1.46424
288.15 K, x1 = 0.5002 | 1057.27 | 1.47591
288.15 K, x1 = 0.5991 | 1090.58 | 1.48597
288.15 K, x1 = 0.6993 | 1120.97 | 1.49516
288.15 K, x1 = 0.7996 | 1148.47 | 1.50345
288.15 K, x1 = 0.9015 | 1173.86 | 1.51115
288.15 K, x1 = 1 | 1196.26 | 1.51779
293.15 K, x1 = 0.1002 | 870.052 | 1.41698
293.15 K, x1 = 0.2014 | 925.438 | 1.43429
293.15 K, x1 = 0.3002 | 972.737 | 1.44898
293.15 K, x1 = 0.4001 | 1014.97 | 1.46209
293.15 K, x1 = 0.5002 | 1052.6 | 1.47367
293.15 K, x1 = 0.5991 | 1085.88 | 1.48373
293.15 K, x1 = 0.6993 | 1116.26 | 1.49296
293.15 K, x1 = 0.7996 | 1143.78 | 1.50126
293.15 K, x1 = 0.9015 | 1169.18 | 1.50899
293.15 K, x1 = 1 | 1191.59 | 1.51565
298.15 K, x1 = 0.1002 | 865.694 | 1.41476
298.15 K, x1 = 0.2014 | 920.934 | 1.43205
298.15 K, x1 = 0.3002 | 968.144 | 1.44672
298.15 K, x1 = 0.4001 | 1010.32 | 1.45982
298.15 K, x1 = 0.5002 | 1047.9 | 1.47143
298.15 K, x1 = 0.5991 | 1081.18 | 1.48158
298.15 K, x1 = 0.6993 | 1111.56 | 1.49076
298.15 K, x1 = 0.7996 | 1139.08 | 1.49911
298.15 K, x1 = 0.9015 | 1164.51 | 1.50685
298.15 K, x1 = 1 | 1186.93 | 1.51354
303.15 K, x1 = 0.1002 | 861.267 | 1.41252
303.15 K, x1 = 0.2014 | 916.383 | 1.42979
303.15 K, x1 = 0.3002 | 963.512 | 1.44444
303.15 K, x1 = 0.4001 | 1005.63 | 1.45755
303.15 K, x1 = 0.5002 | 1043.19 | 1.46921
303.15 K, x1 = 0.5991 | 1076.45 | 1.47934
303.15 K, x1 = 0.6993 | 1106.84 | 1.48856
303.15 K, x1 = 0.7996 | 1134.39 | 1.49692
303.15 K, x1 = 0.9015 | 1159.83 | 1.5047
303.15 K, x1 = 1 | 1182.28 | 1.51146
308.15 K, x1 = 0.1002 | 856.794 | 1.4102
308.15 K, x1 = 0.2014 | 911.783 | 1.42751
308.15 K, x1 = 0.3002 | 958.844 | 1.44214
308.15 K, x1 = 0.4001 | 1000.92 | 1.45527
308.15 K, x1 = 0.5002 | 1038.47 | 1.46689
308.15 K, x1 = 0.5991 | 1071.73 | 1.47701
308.15 K, x1 = 0.6993 | 1102.13 | 1.48633
308.15 K, x1 = 0.7996 | 1129.69 | 1.49475
308.15 K, x1 = 0.9015 | 1155.16 | 1.50256
308.15 K, x1 = 1 | 1177.62 | 1.50943
313.15 K, x1 = 0.1002 | 852.235 | 1.40779
313.15 K, x1 = 0.2014 | 907.129 | 1.42515
313.15 K, x1 = 0.3002 | 954.133 | 1.43975
313.15 K, x1 = 0.4001 | 996.185 | 1.45295
313.15 K, x1 = 0.5002 | 1033.72 | 1.46458
313.15 K, x1 = 0.5991 | 1066.99 | 1.47484
313.15 K, x1 = 0.6993 | 1097.4 | 1.48415
313.15 K, x1 = 0.7996 | 1124.99 | 1.49263
313.15 K, x1 = 0.9015 | 1150.49 | 1.50047
313.15 K, x1 = 1 | 1172.97 | 1.50736
318.15 K, x1 = 0.1002 | 847.597 | 1.40549
318.15 K, x1 = 0.2014 | 902.417 | 1.42284
318.15 K, x1 = 0.3002 | 949.381 | 1.43749
318.15 K, x1 = 0.4001 | 991.415 | 1.45068
318.15 K, x1 = 0.5002 | 1028.95 | 1.46236
318.15 K, x1 = 0.5991 | 1062.23 | 1.47262
318.15 K, x1 = 0.6993 | 1092.67 | 1.48194
318.15 K, x1 = 0.7996 | 1120.3 | 1.49047
318.15 K, x1 = 0.9015 | 1145.82 | 1.49835
318.15 K, x1 = 1 | 1168.32 | 1.50524
323.15 K, x1 = 0.1002 | 842.887 | 1.40309
323.15 K, x1 = 0.2014 | 897.649 | 1.42026
323.15 K, x1 = 0.3002 | 944.587 | 1.4351
323.15 K, x1 = 0.4001 | 986.618 | 1.4483
323.15 K, x1 = 0.5002 | 1024.16 | 1.46001
323.15 K, x1 = 0.5991 | 1057.47 | 1.47032
323.15 K, x1 = 0.6993 | 1087.94 | 1.47972
323.15 K, x1 = 0.7996 | 1115.59 | 1.48828
323.15 K, x1 = 0.9015 | 1141.14 | 1.49621
323.15 K, x1 = 1 | 1163.67 | 1.5032
